Test results taken from patent US7671065B2, “Pyridine derivatives as potassium ion channel openers” (Janssen Pharmaceutica N.V., priority 2005, dated 2010).

target: T1, KATP channels (Homo sapiens, UniProt O60706+Q14654); test: Potassium Channel Assay (FLIPR membrane potential dye, TE671 cells); format: cell-based; conditions: TE671 human medulloblastoma cells, room temperature, fluorescence change monitored for 3 minutes
T1 construct: TE671 human medulloblastoma cells were obtained from ATCC; host or cells: TE671 human medulloblastoma cells
T1 sequence (Q14654 whole entry): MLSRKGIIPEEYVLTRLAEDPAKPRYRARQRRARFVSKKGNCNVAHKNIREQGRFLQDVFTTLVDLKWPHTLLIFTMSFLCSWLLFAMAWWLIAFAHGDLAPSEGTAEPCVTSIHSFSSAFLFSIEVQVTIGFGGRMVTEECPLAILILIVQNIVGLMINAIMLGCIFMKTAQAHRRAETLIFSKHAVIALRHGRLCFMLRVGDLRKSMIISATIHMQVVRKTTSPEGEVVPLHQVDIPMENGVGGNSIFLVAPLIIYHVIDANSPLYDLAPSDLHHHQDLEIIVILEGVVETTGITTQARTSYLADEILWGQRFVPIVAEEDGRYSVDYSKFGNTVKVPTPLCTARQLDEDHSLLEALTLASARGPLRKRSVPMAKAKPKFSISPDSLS
T1 sequence (O60706 1-1549 isoform O60706-2): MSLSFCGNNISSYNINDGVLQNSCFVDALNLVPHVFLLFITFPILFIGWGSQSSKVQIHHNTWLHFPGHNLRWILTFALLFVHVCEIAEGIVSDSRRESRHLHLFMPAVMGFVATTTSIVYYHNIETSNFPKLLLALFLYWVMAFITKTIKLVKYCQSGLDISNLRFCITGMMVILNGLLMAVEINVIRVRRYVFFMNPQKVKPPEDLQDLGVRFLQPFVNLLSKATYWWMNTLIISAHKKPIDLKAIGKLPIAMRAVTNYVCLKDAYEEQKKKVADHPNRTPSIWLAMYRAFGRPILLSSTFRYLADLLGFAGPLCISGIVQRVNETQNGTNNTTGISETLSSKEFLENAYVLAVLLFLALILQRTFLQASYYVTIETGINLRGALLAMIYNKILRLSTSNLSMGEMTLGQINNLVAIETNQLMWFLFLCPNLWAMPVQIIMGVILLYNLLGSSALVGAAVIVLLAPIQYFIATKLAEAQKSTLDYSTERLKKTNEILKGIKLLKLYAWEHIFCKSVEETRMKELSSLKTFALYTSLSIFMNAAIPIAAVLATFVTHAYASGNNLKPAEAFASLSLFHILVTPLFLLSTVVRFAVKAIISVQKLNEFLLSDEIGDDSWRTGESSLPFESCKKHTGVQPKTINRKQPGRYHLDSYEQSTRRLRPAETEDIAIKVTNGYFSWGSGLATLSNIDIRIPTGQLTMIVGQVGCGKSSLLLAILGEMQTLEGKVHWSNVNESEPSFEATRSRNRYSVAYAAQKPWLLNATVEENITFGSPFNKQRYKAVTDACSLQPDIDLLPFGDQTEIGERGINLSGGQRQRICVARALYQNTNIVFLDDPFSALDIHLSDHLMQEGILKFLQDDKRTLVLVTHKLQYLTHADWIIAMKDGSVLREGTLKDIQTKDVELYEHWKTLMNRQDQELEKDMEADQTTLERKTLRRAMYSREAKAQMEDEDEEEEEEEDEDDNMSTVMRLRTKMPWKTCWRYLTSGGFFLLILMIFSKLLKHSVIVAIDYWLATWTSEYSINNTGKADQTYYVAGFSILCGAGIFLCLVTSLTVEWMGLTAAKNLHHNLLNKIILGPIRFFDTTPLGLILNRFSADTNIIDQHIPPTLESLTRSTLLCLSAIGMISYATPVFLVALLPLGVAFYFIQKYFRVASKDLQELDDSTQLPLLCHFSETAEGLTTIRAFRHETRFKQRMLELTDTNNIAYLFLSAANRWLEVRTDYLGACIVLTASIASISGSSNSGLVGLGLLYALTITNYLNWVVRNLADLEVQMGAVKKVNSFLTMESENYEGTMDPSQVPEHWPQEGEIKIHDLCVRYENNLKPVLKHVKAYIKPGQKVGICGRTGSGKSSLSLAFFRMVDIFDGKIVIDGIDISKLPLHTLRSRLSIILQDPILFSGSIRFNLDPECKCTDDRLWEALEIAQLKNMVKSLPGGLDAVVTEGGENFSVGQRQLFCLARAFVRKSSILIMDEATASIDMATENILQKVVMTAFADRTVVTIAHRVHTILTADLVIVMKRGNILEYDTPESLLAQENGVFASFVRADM
Description: TE671 human medulloblastoma cells were obtained from ATCC and grown in Dulbecco's modified Eagle's medium (DMEM) supplemented with 10% fetal bovine serum, 100 U/ml penicillin and 100 U/ml streptomycine.
The day before testing, the cells were plated in black 96-well plates at 50K/well. On the day of testing, the growth media was removed, then 100 μl of FLIPR buffer (20 mM HEPES, 120 mM NaCl, 2 mM KCl, 2 mM CaCl2, 1 mM MgCl2, 5 mM Glucose) and 100 μl of Membrane Potential Assay Dye (Molecular Devices) dissolved in FLIPR buffer were added to each well. The cells were incubated at room temperature for 15 to 30 min.
The effect of test compounds on KATP channels were evaluated on a fluorometric imaging plate reader (FLIPR, Molecular Devices) at room temperature. After a baseline period, 50 μl of 5× stock solution of test compound prepared in FLIPR buffer was added and fluorescence change was monitored for 3 minutes. After this reading, glyburide, a KATP channel blocker, was added to a final concentration of 5 μM to check the specificity of the test compound as a KATP channel opener. Hyperpolarization resulting from KATP channel opening was observed as a decrease in fluorescence intensity.
Representative compounds of the present invention were tested according to the procedure described above, with results as listed in Table 7 below.

SMILES | EC50 [µM] | % Stimulation [%]
CSc1ccc(C(O)c2cnccc2-c2cccc(C#N)c2)cc1 (centres unmarked) [Compound 34, 3-{3-[Hydroxy-(4-methylsulfanyl-phenyl)-methyl]-pyridin-4-yl}-benzonitrile] | 20.8 | –
CC(O)c1cnccc1-c1cccc(C#N)c1 (centres unmarked) [Compound 52, 3-[3-(1-Hydroxy-ethyl)-pyridin-4-yl]-benzonitrile] | 17.2 | –
O=C(c1ccccc1)c1ccncc1C(O)c1ccccc1 (centres unmarked) [Compound 43, [3-(Hydroxy-phenyl-methyl)-pyridin-4-yl]-phenyl-methanone] | 17.4 | –
COc1ccc(C(O)c2cnccc2-c2cccc(C#N)c2)cc1F (centres unmarked) [Compound 37, 3-{3-[(3-Fluoro-4-methoxy-phenyl)-hydroxy-methyl]-pyridin-4-yl}-benzonitrile] | 9.59 | –
CCOC(=O)c1cnc2cc(C(F)(F)F)ccc2c1-c1ccc(-c2ccccc2)cc1 [Compound 5, 4-Biphenyl-4-yl-7-trifluoromethyl-quinoline-3-carboxylic acid ethyl ester] | > 30 | 33
N#Cc1cccc(-c2ccncc2C(O)c2ccccc2)c1 (centres unmarked) [Compound 19, 3-[3-(Hydroxy-phenyl-methyl)-pyridin-4-yl]-benzonitrile] | 9.63 | –
CCOC(=O)c1cnc2cc(C(F)(F)F)ccc2c1-c1cc(CO)ccc1OC [Compound 14, 4-(5-Hydroxymethyl-2-methoxy-phenyl)-7-trifluoromethyl-quinoline-3-carboxylic acid ethyl ester] | 4.56 | –
COc1ccc(OC)c(C(O)c2cnccc2C(=O)c2ccccc2)c1 (centres unmarked) [Compound 46, {3-[(2,5-Dimethoxy-phenyl)-hydroxy-methyl]-pyridin-4-yl}-phenyl-methanone] | 12.1 | –
N#Cc1cccc(-c2ccncc2C(O)c2ccc(Cl)cc2)c1 (centres unmarked) [Compound 26, 3-{3-[(4-Chloro-phenyl)-hydroxy-methyl]-pyridin-4-yl}-benzonitrile] | 10.2 | –
CCOC(=O)c1cnc2cc(C(F)(F)F)ccc2c1-c1ccc(C)c(C)c1 [Compound 13, 4-(3,4-Dimethyl-phenyl)-7-trifluoromethyl-quinoline-3-carboxylic acid ethyl ester] | > 30 | 0
O=C(c1ccccc1)c1ccncc1C(O)c1cccc(F)c1 (centres unmarked) [Compound 47, {3-[(3-Fluoro-phenyl)-hydroxy-methyl]-pyridin-4-yl}-phenyl-methanone] | 5.09 | –
N#Cc1cccc(C2OCc3cnccc32)c1 (centres unmarked) [Compound 66, 3-(1,3-Dihydro-furor[3,4-c]pyridin-1-yl)-benzonitrile] | 8.19 | –
